Experimental data taken from US20180185374A1, “INHIBITORS OF MTOR KINASE AS ANTI-VIRAL AGENTS” (THE TRUSTEES OF PRINCETON UNIVERSITY, priority 2009, published 2018).

Key:
[1] = tested on: HCMV; test: Western blot of HCMV proteins (IE1, pUL44, pUL99) in infected fibroblasts; type: cell-based, human cytomegalovirus; conditions: 6 to 96 hpi; rapamycin 20 nM, Torin1 250 nM; 3 PFU/cell
Description: FIG. 2. […] Serum-starved confluent fibroblasts were infected with HCMV at a multiplicity of 3 PFU/cell. […] Control cultures received the vehicle in which Torin1 was dissolved (NT). At 2 hpi cells were harvested, and cell-associated viral DNA was quantified by real-time PCR analysis. Error bars represent the standard errors of the means from two independent experiments performed in duplicate. […] The level of IE1 was determined at 6 hpi by a Western blot assay using an IE1-specific monoclonal antibody. The image is representative of two independent experiments. […] The expression of a GFP marker gene present in the viral genome was monitored at 24 h after infection in the presence or absence of drug.
FIG. 3. […] (A) Rapamycin-resistant mTOR activity is required for the accumulation of an some but not all HCMV proteins. […] Cells were harvested at the indicated times, and the accumulation of the indicated proteins was analyzed by Western blotting. […] At the indicated times DNA was isolated, and viral DNA was quantified by qPCR. Equivalent amounts of DNA were analyzed for each sample, and the results are normalized to the level of actin DNA per sample. […] At the indicated times the amount of UL99 RNA was determined by qPCR, and the results are normalized to the amount of actin RNA in each sample.
Cells were lysed in radioimmunoprecipitation assay (RIPA) buffer (50 mM Tris-HCl [pH 7.4], […], 0.25% sodium deoxycholate, 150 mM NaCl, 1 mM EDTA) containing protease inhibitors (complete EDTA free; Roche). Protein concentrations in each lysate were determined by the Bradford assay. 30 μg of protein was analyzed per sample. Proteins in cell lysates were resolved on SDS-containing 10% polyacrylamide gels. Proteins were transferred onto Protran membranes by using a semidry transfer apparatus. […]
Antibodies to pUL99 have been described previously (Silva, et al. J. Virol. (2003) 77:10594-10605). In addition, accumulation of HCMV DNA was monitored following infection using the methods described above.

[2] = tested on: 4EBP1; test: 4EBP1 phosphorylation in MCMV-infected MEFs, Western blot; type: cell-based, mouse; conditions: Torin1 250 nM
Description: FIG. 5. […] Fresh serum-free medium containing drugs was added every other day. At the indicated times, cell-free supernatants were harvested, and the amount of virus in the supernatant was quantified by the TCID50 method. Error bars represent the standard errors of the means form two independent experiments performed in duplicate. […] At 48 hpi the phosphorylation state of the indicated mTORC1 targets was analyzed by a Western blot assay by using antibodies to phosphorylated targets (4EBP1-PT^37/46 and rpS6-PS^235/6) and total proteins. The results are representative of three independent experiments.
FIG. 6. mTORC2 and its target, Akt, are not the source of rapamycin-resistant mTOR activity. […] At 6 days post infection the amount of MCMV in cell-free supernatants was determined by the TCID50 method. […] At 48 hpi, the phosphorylation state of mTORC1 targets was assessed by Western blotting using antibodies specific for the indicated proteins. (C) Confirmation of the genotype of Rictor-null MEFs. Total DNA was isolated from wild-type and Rictor-null MEFs, and the genotype was confirmed by use of PCR. (D) Same as above (A) except that Akt1- and Akt2-null MEFs were used. (E) Same as above (B) except that Akt1- and Akt2-null MEFs were used. For B and E, the error bars represent the standard errors of the means from at least two independent experiments, each performed in duplicate. For […], tubulin was assayed as a loading control. […] Protein from wild-type or mutant MEFs was analyzed by Western blotting by use of an antibody specific for Akt.
The identification of the functional roles of proteins in the mTOR signaling pathway has been facilitated by the generation of knockout mouse strains lacking individual mTOR components. […] Also as observed for HCMV (FIG. 4A), MCMV infection induced mTORC1 activity, as measured by the increased phosphorylation of rpS6. […]
We first investigated the requirement for mTORC2 for the replication of MCMV. […] Finally, that 4EBP1 was not detected in lysates of these cells by Western blot assay confirmed the phenotype of the MEFs.

[3] = tested on: cells; conditions: concentrations of up to 500 nM; previous reports; cited from earlier work

CCC(=O)N1CCN(c2ccc(-n3c(=O)ccc4cnc5ccc(-c6cnc7ccccc7c6)cc5c43)cc2C(F)(F)F)CC1 [Torin1]
accumulation of early protein pUL44 [1]: inhibited the accumulation of IE1 and pUL44 to a limited extent | accumulation of immediate-early protein IE1 [1]: inhibited the accumulation of IE1 and pUL44 to a limited extent | accumulation of late protein pUL99 [1]: dramatically reduced | 4EBP1 phosphorylation ([2]; Akt1/Akt2-null MEFs): inhibited | 4EBP1 phosphorylation ([2]; Rictor-null MEFs, 48 hpi): effectively inhibited | phosphorylation of 4EBP1 in MCMV-infected MEFs ([2]; wild-type MEFs, 48 hpi, rapamycin 20 nM, LY294002 20 μM): inhibited | cell killing [3]: does not kill cells
